Assay results as given in ChEMBL document CHEMBL3352400, “4-Functionalized 1,3-diarylpyrazoles bearing 6-aminosulfonylbenzothiazole moiety as potent inhibitors of carbonic anhydrase isoforms hCA I, II, IX and XII” (Bioorg Med Chem, 2014).

Legend:
[1] = target: Carbonic anhydrase 9 (Homo sapiens, UniProt Q16790); experiment: Inhibition of human carbonic anhydrase 9 by stopped flow CO2 hydrase assay method
[2] = target: Carbonic anhydrase 1 (Homo sapiens, UniProt P00915); experiment: Inhibition of human carbonic anhydrase 1 by stopped flow CO2 hydrase assay method
Chain of Carbonic anhydrase 1 (P00915 whole entry): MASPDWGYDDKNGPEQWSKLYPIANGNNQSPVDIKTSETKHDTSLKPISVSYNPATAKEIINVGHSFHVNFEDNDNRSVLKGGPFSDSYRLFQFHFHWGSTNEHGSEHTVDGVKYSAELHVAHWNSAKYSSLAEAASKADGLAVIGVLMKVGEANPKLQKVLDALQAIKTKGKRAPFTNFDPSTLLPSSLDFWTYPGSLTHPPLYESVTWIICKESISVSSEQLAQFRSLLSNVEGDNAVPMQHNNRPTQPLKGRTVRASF

[3] = target: Carbonic anhydrase 12 (Homo sapiens, UniProt O43570); experiment: Inhibition of human carbonic anhydrase 12 by stopped flow CO2 hydrase assay method
Chain of Carbonic anhydrase 12 (O43570 whole entry): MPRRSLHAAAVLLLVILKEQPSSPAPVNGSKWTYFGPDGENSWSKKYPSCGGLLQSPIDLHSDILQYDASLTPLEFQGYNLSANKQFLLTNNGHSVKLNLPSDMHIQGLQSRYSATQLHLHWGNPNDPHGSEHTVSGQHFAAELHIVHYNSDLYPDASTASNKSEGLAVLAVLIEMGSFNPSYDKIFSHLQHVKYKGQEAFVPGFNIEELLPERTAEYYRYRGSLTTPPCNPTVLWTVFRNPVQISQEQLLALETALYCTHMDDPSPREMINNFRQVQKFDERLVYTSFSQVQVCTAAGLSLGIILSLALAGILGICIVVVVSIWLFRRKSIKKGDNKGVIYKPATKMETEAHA

Structure (SMILES): NS(=O)(=O)c1ccc2nc(-n3cc(C(=O)O)c(-c4ccc(Cl)cc4)n3)sc2c1
- Ki [1]: 0.0028 µM

Structure (SMILES): N#Cc1cn(-c2nc3ccc(S(N)(=O)=O)cc3s2)nc1-c1ccc(F)cc1
- Ki [1]: 0.739 µM

Structure (SMILES): N#Cc1cn(-c2nc3ccc(S(N)(=O)=O)cc3s2)nc1-c1ccc(Cl)cc1
- Ki [2]: > 50 µM
- Ki [1]: 0.224 µM

Structure (SMILES): N#Cc1cn(-c2nc3ccc(S(N)(=O)=O)cc3s2)nc1-c1ccc([N+](=O)[O-])cc1
- Ki [2]: > 50 µM
- Ki [1]: 0.854 µM

Structure (SMILES): NS(=O)(=O)c1ccc2nc(-n3cc(/C=N/O)c(-c4ccc(F)cc4)n3)sc2c1
- Ki [1]: 0.224 µM

Structure (SMILES): COc1ccc(-c2nn(-c3nc4ccc(S(N)(=O)=O)cc4s3)cc2C=O)cc1
- Ki [1]: 0.229 µM

Structure (SMILES): NS(=O)(=O)c1ccc2nc(-n3cc(C=O)c(-c4ccccc4)n3)sc2c1
- Ki [1]: 1.75 µM

Structure (SMILES): Cc1ccc(-c2nn(-c3nc4ccc(S(N)(=O)=O)cc4s3)cc2C(=O)O)cc1
- Ki [1]: 0.109 µM

Structure (SMILES): N#Cc1cn(-c2nc3ccc(S(N)(=O)=O)cc3s2)nc1-c1ccccc1
- Ki [1]: 0.0816 µM

Structure (SMILES): NS(=O)(=O)c1ccc2nc(-n3cc(C=O)c(-c4ccc(F)cc4)n3)sc2c1
- Ki [3]: > 10 µM

Structure (SMILES): NS(=O)(=O)c1ccc2nc(-n3cc(C=O)c(-c4ccc(Cl)cc4)n3)sc2c1
- Ki [1]: 1.69 µM

Structure (SMILES): NS(=O)(=O)c1ccc2nc(-n3cc(C=O)c(-c4ccc([N+](=O)[O-])cc4)n3)sc2c1
- Ki [1]: 2.11 µM

Structure (SMILES): Cc1ccc(-c2nn(-c3nc4ccc(S(N)(=O)=O)cc4s3)cc2/C=N/O)cc1
- Ki [1]: 0.134 µM

Structure (SMILES): NS(=O)(=O)c1ccc2nc(-n3cc(C(=O)O)c(-c4ccc(F)cc4)n3)sc2c1
- Ki [1]: 0.0624 µM

Structure (SMILES): Cc1ccc(-c2nn(-c3nc4ccc(S(N)(=O)=O)cc4s3)cc2C#N)cc1
- Ki [2]: > 50 µM
- Ki [1]: 0.186 µM

Structure (SMILES): Cc1ccc(-c2nn(-c3nc4ccc(S(N)(=O)=O)cc4s3)cc2C=O)cc1
- Ki [1]: 0.699 µM

Structure (SMILES): NS(=O)(=O)c1ccc2nc(-n3cc(C(=O)O)c(-c4ccccc4)n3)sc2c1
- Ki [1]: 0.752 µM

Structure (SMILES): NS(=O)(=O)c1ccc2nc(-n3cc(C(=O)O)c(-c4ccc([N+](=O)[O-])cc4)n3)sc2c1
- Ki [1]: 0.0604 µM

Structure (SMILES): NS(=O)(=O)c1ccc2nc(-n3cc(/C=N/O)c(-c4ccccc4)n3)sc2c1
- Ki [1]: 0.114 µM

Structure (SMILES): COc1ccc(-c2nn(-c3nc4ccc(S(N)(=O)=O)cc4s3)cc2C(=O)O)cc1
- Ki [1]: 0.842 µM

Structure (SMILES): NS(=O)(=O)c1ccc2nc(-n3cc(/C=N/O)c(-c4ccc(Cl)cc4)n3)sc2c1
- Ki [1]: 0.152 µM

Structure (SMILES): COc1ccc(-c2nn(-c3nc4ccc(S(N)(=O)=O)cc4s3)cc2C#N)cc1
- Ki [2]: > 50 µM
- Ki [1]: 0.111 µM

Structure (SMILES): COc1ccc(-c2nn(-c3nc4ccc(S(N)(=O)=O)cc4s3)cc2/C=N/O)cc1
- Ki [2]: > 50 µM
- Ki [1]: 0.0916 µM
